This note sets out measurements from ChEMBL document CHEMBL1142531, “Discovery and biological profile of 4-(1-aryltriazol-4-yl)-tetrahydropyridines as an orally active new class of metabotropic glutamate receptor 1 antagonist” (Bioorg Med Chem, 2008).

Converted amounts (≈) assume the structure as drawn. The source made the active and inactive calls. The calls are words filed in the database; no cut-off is given here. A value given as a limit tells only on which side of the number the result lay.

Data set [1] concerns Mus musculus. As to the kind of experiment: Inhibition of (S)-3,5-[…]-induced face washing behavior in mouse administered 30 mins before (S)-3,5-DHPG measured after 5 mins. In kind it is functional, organism-based.
Data set [2] deals with Metabotropic glutamate receptor 1 (Homo sapiens, UniProt Q13255). As to the kind of experiment: Antagonist activity at human mGluR1 expressed in CHO cells assessed as calcium flux by FLIPR assay. In kind it is functional, cell-based.
In data set [3] the target is Metabotropic glutamate receptor 1 (Mus musculus, UniProt P97772). As to the kind of experiment: Antagonist activity at mouse mGluR1 expressed in CHO cells assessed as calcium flux by FLIPR assay. In kind it is functional, cell-based.
Data set [4] addresses Metabotropic glutamate receptor 5 (Homo sapiens, UniProt P41594). As to the kind of experiment: Antagonist activity at human mGluR5 expressed in CHO cells assessed as calcium flux by FLIPR assay. Format: functional, cell-based.
The nature of data set [5]: Octanol-water partition coefficient, log D at pH 7.4 by shake flask method. In kind it is physicochemical.
A short description of data set [6]: Metabolic stability in mouse liver microsomes at 1 uM after 30 mins. In kind it is ADME, Microsome. The conditions noted are these: read-out: Stability.
Data set [7] concerns the target Metabotropic glutamate receptor 2 (Homo sapiens) (UniProt Q14416). As to the kind of experiment: Activity at human mGluR2 expressed in CHO cells at 10 uM by [35S]GTPgammaS binding assay. Format: functional, cell-based.
Data set [8] in a line: Total plasma clearance in rat at 1 mg/kg, iv. Set-up: dose 1 mg/kg, route intravenous. In kind it is ADME, organism-based.
A short description of data set [9]: Inhibition of NMDA receptor.
Data set [10] in a line: Inhibition of kainate receptor.
A short description of data set [11]: Inhibition of AMPA receptor.
In data set [12] the test system is Mus musculus. As to the kind of experiment: Brain concentration in mouse at 10 mg/kg, po after 30 mins. In kind it is ADME, organism-based. More on the design: dose 10 mg/kg, route oral. The conditions noted are these: in vivo, 0.5 h.
The target in data set [13] is Metabotropic glutamate receptor 8 (Homo sapiens) (UniProt O00222). As to the kind of experiment: Activity at human mGluR8 expressed in CHO-K1 cells at 10 uM by [35S]GTPgammaS binding assay. Format: functional, cell-based.
Data set [14] relates to Mus musculus. As to the kind of experiment: Inhibition of (S)-3,5-[…]-induced face washing behavior in mouse at 10 to 30 mg/kg, ip administered 30 mins before (S)-3,5-DHPG measured after 5 mins. Format: functional, organism-based.
Data set [15] is described as follows: Plasma concentration in mouse at 10 mg/kg, po after 30 mins. More on the design: dose 10 mg/kg, route oral. Format: ADME, organism-based.
Data set [16] can be described thus: Oral bioavailability in rat at 3 mg/kg. In kind it is ADME, organism-based. The conditions noted are these: in vivo.
Data set [17] can be described thus: Metabolic stability in rat liver microsomes at 1 uM after 30 mins. In kind it is ADME, Microsome. The conditions noted are these: read-out: Stability.
Data set [18] is described as follows: Half life in rat at 1 mg/kg, iv. In kind it is ADME, organism-based. More on the design: dose 1 mg/kg, route intravenous. The settings on record: in vivo.
The subject of data set [19] is Mus musculus. As to the kind of experiment: Inhibition of (S)-3,5-[…]-induced face washing behavior in mouse at 10 to 30 mg/kg, po administered 30 mins before (S)-3,5-DHPG measured after 5 mins. Format: functional, organism-based.
Data set [20] in a line: Metabolic stability in human liver microsomes at 1 uM after 30 mins. In kind it is ADME, Microsome. The settings on record: read-out: Stability.
Data set [21] addresses Metabotropic glutamate receptor 6 (Homo sapiens) (UniProt O15303). As to the kind of experiment: Activity at human mGluR6 expressed in CHO cells at 10 uM by [35S]GTPgammaS binding assay. In kind it is functional, cell-based.
Data set [22] can be described thus: Solubility in water by ultra performance liquid chromatography. In kind it is physicochemical.
The target in data set [23] is Metabotropic glutamate receptor 4 (Homo sapiens) (UniProt Q14833). As to the kind of experiment: Activity at human mGluR4 expressed in CHO cells at 10 uM by [35S]GTPgammaS binding assay. Format: functional, cell-based.
For data set [24], the target named is Metabotropic glutamate receptor 7 (Homo sapiens) (UniProt Q14831). As to the kind of experiment: Activity at human mGluR7 expressed in CHO cells at 10 uM by [35S]GTPgammaS binding assay. In kind it is functional, cell-based.
Data set [25] has as its system Mus musculus. As to the kind of experiment: Inhibition of (S)-3,5-[…]-induced face washing behavior in mouse at 3 to 10 mg/kg, ip administered 30 mins before (S)-3,5-DHPG measured after 5 mins. In kind it is functional, organism-based.

Chain of Metabotropic glutamate receptor 1 (Mus musculus, UniProt P97772) (P97772 whole entry): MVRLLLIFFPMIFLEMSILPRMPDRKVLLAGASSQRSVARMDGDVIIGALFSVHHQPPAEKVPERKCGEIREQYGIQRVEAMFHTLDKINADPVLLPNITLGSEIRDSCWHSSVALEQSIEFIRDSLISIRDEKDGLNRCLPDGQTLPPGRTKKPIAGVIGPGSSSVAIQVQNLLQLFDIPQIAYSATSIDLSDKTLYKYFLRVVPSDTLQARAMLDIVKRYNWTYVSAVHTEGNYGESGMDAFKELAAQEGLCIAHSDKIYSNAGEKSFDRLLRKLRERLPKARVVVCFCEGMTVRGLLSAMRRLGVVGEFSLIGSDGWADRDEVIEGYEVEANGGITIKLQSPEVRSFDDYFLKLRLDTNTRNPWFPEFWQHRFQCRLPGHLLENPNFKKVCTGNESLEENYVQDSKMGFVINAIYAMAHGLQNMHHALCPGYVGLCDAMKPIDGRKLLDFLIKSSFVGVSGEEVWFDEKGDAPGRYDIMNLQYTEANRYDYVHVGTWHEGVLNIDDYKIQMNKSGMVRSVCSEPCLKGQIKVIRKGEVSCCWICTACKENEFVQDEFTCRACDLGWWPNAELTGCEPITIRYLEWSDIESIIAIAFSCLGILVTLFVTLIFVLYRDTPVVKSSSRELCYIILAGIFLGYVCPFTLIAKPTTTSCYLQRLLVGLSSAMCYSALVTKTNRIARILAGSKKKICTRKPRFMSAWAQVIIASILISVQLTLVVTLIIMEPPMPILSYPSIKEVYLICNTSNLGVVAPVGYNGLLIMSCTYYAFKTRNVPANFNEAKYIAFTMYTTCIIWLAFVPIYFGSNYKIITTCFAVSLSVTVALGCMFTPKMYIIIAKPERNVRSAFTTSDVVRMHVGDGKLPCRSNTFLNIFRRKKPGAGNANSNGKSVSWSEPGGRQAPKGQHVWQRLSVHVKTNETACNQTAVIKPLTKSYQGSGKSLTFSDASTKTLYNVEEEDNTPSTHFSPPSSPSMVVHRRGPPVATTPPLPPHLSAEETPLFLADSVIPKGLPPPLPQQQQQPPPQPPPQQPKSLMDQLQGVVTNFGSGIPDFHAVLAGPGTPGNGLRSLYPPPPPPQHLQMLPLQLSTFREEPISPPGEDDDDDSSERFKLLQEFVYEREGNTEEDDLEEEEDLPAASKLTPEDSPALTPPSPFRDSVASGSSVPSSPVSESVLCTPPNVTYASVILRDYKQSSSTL
Chain of Metabotropic glutamate receptor 1 (Homo sapiens, UniProt Q13255) (Q13255 whole entry): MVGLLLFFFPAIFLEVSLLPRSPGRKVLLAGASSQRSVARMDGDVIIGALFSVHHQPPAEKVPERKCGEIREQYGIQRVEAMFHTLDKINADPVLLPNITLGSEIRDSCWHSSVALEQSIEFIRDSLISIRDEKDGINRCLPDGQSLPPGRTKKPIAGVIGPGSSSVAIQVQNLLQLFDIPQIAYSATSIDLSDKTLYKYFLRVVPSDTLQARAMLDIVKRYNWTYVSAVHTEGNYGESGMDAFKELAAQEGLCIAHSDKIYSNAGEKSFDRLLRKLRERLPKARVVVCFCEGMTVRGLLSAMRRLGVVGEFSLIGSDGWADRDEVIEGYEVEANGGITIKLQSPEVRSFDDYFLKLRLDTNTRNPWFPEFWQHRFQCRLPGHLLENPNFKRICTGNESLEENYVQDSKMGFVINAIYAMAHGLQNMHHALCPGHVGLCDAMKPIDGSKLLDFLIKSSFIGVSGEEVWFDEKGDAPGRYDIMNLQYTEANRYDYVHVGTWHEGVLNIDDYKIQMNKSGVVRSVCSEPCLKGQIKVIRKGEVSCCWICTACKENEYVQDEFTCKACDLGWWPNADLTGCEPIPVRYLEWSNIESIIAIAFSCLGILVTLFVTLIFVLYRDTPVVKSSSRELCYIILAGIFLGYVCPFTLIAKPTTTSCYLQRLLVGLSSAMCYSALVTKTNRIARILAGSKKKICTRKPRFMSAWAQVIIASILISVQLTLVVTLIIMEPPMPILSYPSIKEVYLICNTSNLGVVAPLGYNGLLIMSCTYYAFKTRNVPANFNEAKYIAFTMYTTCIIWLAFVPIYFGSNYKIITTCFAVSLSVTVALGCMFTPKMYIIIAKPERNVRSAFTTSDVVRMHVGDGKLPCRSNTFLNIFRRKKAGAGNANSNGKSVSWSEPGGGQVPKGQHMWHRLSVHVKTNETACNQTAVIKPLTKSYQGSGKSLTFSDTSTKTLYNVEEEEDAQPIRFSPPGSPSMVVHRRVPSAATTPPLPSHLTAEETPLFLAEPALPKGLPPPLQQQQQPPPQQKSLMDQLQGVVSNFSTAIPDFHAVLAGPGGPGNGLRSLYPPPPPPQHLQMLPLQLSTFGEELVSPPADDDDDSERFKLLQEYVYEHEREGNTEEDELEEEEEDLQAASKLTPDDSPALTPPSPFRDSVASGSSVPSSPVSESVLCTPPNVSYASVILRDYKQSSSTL
Chain of Metabotropic glutamate receptor 5 (P41594 whole entry): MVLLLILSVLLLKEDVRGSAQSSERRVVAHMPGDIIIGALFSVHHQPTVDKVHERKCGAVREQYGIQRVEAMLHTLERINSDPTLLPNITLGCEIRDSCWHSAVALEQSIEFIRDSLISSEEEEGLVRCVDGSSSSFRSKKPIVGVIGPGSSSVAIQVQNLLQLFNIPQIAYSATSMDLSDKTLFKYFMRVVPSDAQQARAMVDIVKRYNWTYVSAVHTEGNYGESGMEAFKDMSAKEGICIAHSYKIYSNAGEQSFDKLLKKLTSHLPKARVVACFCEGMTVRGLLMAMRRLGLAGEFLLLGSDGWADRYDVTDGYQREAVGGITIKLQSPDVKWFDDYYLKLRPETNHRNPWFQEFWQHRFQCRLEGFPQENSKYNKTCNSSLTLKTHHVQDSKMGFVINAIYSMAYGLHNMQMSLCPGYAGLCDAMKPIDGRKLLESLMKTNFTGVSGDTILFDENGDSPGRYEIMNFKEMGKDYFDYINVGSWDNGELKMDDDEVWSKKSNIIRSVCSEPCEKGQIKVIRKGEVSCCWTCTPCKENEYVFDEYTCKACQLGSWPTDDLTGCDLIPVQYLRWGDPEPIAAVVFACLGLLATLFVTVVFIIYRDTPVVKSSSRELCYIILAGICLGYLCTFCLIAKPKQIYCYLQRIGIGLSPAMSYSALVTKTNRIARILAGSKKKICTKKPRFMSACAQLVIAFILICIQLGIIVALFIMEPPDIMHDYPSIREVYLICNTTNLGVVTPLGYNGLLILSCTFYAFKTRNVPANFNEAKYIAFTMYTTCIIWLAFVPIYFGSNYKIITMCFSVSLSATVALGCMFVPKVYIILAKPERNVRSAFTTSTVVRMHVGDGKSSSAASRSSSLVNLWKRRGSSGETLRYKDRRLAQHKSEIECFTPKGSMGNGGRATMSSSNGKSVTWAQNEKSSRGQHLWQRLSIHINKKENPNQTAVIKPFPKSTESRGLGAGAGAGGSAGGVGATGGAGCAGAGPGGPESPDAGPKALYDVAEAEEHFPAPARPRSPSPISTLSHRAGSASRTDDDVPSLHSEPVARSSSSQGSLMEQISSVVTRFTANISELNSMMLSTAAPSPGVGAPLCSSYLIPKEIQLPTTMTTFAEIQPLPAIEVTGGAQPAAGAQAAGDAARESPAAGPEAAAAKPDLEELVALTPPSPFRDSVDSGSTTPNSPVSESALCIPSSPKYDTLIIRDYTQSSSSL
Chain of Metabotropic glutamate receptor 7 (Homo sapiens) (Q14831 whole entry): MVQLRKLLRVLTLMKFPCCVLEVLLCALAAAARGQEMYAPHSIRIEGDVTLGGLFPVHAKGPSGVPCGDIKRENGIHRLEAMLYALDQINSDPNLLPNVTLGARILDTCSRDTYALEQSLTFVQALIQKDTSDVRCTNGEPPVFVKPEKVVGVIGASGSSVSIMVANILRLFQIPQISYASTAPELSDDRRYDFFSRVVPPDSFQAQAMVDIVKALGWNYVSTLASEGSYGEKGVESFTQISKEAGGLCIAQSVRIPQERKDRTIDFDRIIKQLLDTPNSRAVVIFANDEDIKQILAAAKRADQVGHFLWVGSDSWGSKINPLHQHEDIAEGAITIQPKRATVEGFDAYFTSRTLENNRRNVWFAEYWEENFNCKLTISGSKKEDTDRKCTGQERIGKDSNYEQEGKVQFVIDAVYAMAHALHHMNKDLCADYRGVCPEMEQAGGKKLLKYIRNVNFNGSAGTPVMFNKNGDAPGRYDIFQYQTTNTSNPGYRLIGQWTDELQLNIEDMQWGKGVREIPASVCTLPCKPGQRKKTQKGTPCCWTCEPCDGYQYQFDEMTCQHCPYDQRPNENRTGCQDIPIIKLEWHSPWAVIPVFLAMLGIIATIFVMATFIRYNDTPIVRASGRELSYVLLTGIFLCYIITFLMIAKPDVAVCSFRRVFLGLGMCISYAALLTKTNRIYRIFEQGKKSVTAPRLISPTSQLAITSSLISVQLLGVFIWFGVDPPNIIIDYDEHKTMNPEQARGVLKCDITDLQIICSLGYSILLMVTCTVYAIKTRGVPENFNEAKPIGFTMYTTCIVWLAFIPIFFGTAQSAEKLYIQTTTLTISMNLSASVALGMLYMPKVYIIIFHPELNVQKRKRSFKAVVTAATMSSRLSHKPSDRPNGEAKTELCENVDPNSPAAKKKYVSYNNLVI

`N[C@H](C(=O)O)c1ccc(C(=O)O)cc1`: the result in data set [1] was Active.

With `CC(C)(C)OC(=O)N1CC=C(c2cn(-c3cccnc3)nn2)CC1`, the IC50 in data set [2] was determined as 55 nM; in [3] it was 180 nM; in data set [4] it was 8300 nM. In data set [5], this compound returned a log distribution coefficient (logD) of 3.

Turning to `CC(C)(C)CC(=O)N1CC=C(c2cn(-c3ccccc3F)nn2)CC1`, the IC50 is 120 nM in [2], 160 nM in [3] and greater than 10000 nM in data set [4].

With `CC(C)(C)OC(=O)N1CC=C(c2cn(-c3ccc(F)cc3)nn2)CC1`, the results for the half-maximal inhibitory concentration (IC50) in data set [2], in data set [3] and in data set [4] were 16 nM, 31 nM and 1100 nM, respectively. The logD in data set [5] was greater than 4.

On to `CC(C)(C)OC(=O)N1CC=C(c2cn(-c3ccccn3)nn2)CC1`, for which the results for the half-maximal inhibitory concentration (IC50) in [2], in [3] and in [4] were 49 nM, 150 nM and 8700 nM, respectively. Further, the pH-dependent lipophilicity (logD) in [5] was greater than 4.

As to `Cc1ccccc1-n1cc(C2=CCN(C(=O)OC(C)(C)C)CC2)nn1`, the figures for the concentration for half-maximal inhibition (IC50) in [2], in [3] and in [4] were 11 nM, 58 nM and 880 nM, respectively. The same compound had a logD in data set [5] greater than 4.

On to `CC(C)(C)OC(=O)N1CC=C(c2cn(-c3cccnc3F)nn2)CC1`, for which the IC50 is 2.6 nM in data set [2], 12 nM in [3] and 4300 nM in data set [4]. Further, the logD in data set [5] turned out to be 3.1.

As to `CC(C)(C)NC(=O)N1CC=C(c2cn(-c3ccccc3F)nn2)CC1`, the figures for the concentration for half-maximal inhibition (IC50) in data set [2], in data set [3] and in data set [4] were 57 nM, 290 nM and 8600 nM, respectively. Moreover, the logD in data set [5] stood at 3.2.

Consider `CC(C)(C)OC(=O)N1CC=C(c2cn(-c3cccc(F)c3)nn2)CC1`, for which the IC50 in data set [2] turned out to be 18 nM; in [3], 39 nM; in [4], 1100 nM. The compound also displayed a logD in [5] greater than 4.

With `CC(C)(C)OC(=O)N1CC=C(c2cn(-c3ccncc3)nn2)CC1`, the IC50 in data set [2] is 220 nM; in data set [3], 1000 nM; in [4] it was greater than 10000 nM.

As for `CC(C)(C)OC(=O)N1CC=C(c2cn(-c3ccccc3F)nn2)CC1`, the half-maximal inhibitory concentration (IC50) in [2] worked out at 6.3 nM; in data set [3], 16 nM; in [4], 1000 nM. The logD in data set [5] is greater than 4.

Turning to `Cc1c(C2=CCN(C(=O)N(C)C(C)C)CC2)nnn1-c1cccnc1F`, the values for the remaining at 0.5 h, 1 µM in [6], in data set [17] and in data set [20] were 27%, 61% and 85%, respectively. In addition, the outcome in [7], in data set [13], in data set [21], in [23] and in data set [24] was inactive. Moreover, the concentration for half-maximal inhibition (IC50) was 3.1 nM in data set [3]; greater than 10000 nM in [9]; greater than 10000 nM in data set [10]; greater than 10000 nM in [11]; 6200 nM in data set [4]. This compound yielded a clearance in [8] of 57 mL/min/kg. Moreover, in [12], the Drug uptake was determined as 0.17 nmol/g. In addition, the result in [14] and in data set [19] was Active. Moreover, in data set [15], the concentration at 0.5 h was 210 nM. In [16], this compound had a bioavailability of 18%. This compound had a half-life in data set [18] of 12 min. The same compound returned a logD in [5] of 2.1. Further, the solubility in data set [22] is greater than 170 µM.

Turning to `NC1(C(=O)O)CCc2cc(C(=O)O)ccc21` (racemic), the outcome in [1] was Active.

In the case of `Cc1c(C2=CCN(C(=O)OC(C)(C)C)CC2)nnn1-c1cccnc1F`, the remaining at 0.5 h, 1 µM amounted to 2% in data set [6], 70% in data set [17] and 90% in data set [20]. Besides, the result in data set [25] was Active. In addition, the IC50 was 7 nM in [2], 1.5 nM in [3] and 170 nM in [4]. In [5], this compound had a log distribution coefficient (logD) of 2.9. In addition, the solubility in data set [22] turned out to be 155 µM (≈ 55.7 µg/mL).

For the compound `CC(C)OC(=O)N1CC=C(c2cn(-c3cccnc3F)nn2)CC1`, the IC50 in data set [2] stood at 39 nM; in data set [3] it was 180 nM; in [4], 3900 nM. Besides, the pH-dependent lipophilicity (logD) in data set [5] stood at 2.8.

For `Cc1c(C2=CCN(C(=O)OC(C)C)CC2)nnn1-c1cccnc1F`, the results for the half-inhibitory concentration (IC50) in data set [2], in [3] and in data set [4] were 7.2 nM, 3.3 nM and 40 nM, respectively. The same compound gave a logD in data set [5] of 2.8.

For the compound `COc1ccccc1-n1cc(C2=CCN(C(=O)OC(C)(C)C)CC2)nn1`, the IC50 is 590 nM in data set [2], 1600 nM in data set [3] and 4000 nM in data set [4].

Consider `CC(C)(C)OC(=O)N1CC=C(c2cn(-c3ccccc3)nn2)CC1`, for which the values for the half-inhibitory concentration (IC50) in [2], in data set [3] and in [4] were 9.8 nM, 24 nM and 820 nM, respectively. Also, the remaining at 0.5 h, 1 µM in [17] was determined as 16%; in data set [20] it was 57%. Besides, the logD in [5] is greater than 4. The solubility in data set [22] turned out to be 2.4 µM (≈ 0.783 µg/mL).
